Experimental data: patent US6737383B1, “Herbicidal oxadiazolidines” (priority 1999, dated 2004)

Tests used:
[1] = test system: giant foxtail; test: Test B pre/postemergence giant foxtail; assay type: in vivo, Setaria faberii
How it was run: (§1)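 Herbicidal effect was estimated by eye on a ten-point control scale after plants spent twelve to sixteen days in a greenhouse following soil or foliar treatment. Foliar sprays targeted plants at one to four leaves; all doses were formulated in a non-phytotoxic solvent with surfactant.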

[2] = test system: cocklebur; test: Test B pre/postemergence cocklebur; assay type: in vivo, Xanthium strumarium
How it was run: as §1

[3] = test system: bamyardgrass; test: Test B flood test barnyardgrass; assay type: in vivo, Echinochloa crus-galli; conditions: for Plant response rating, Barnyardgrass (0 to 10 scale, 0 is no effect, 10 is complete control): Rate 62 g/ha; for Plant response rating, Barnyardgrass (0 to 10 scale, 0 is no effect, 10 is complete control) / Barnyardgrass plant response rating (0 to 10 scale, 0 is no effect, 10 is complete control): visual evaluation after twelve to sixteen days; for Barnyardgrass plant response rating (0 to 10 scale, 0 is no effect, 10 is complete control): Rate 125 g/ha, under heading Pre-emergence
How it was run: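 Read-out is a visual response score from 0 (no effect) to 10 (complete control), assigned by comparison with untreated controls. Treatment was applied at the 2-leaf stage, and plants stayed in the greenhouse for twelve to sixteen days before scoring.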

[4] = test system: morningglory; test: Test B pre/postemergence morningglory; assay type: in vivo, Ipomoea hederacea
How it was run: as §1

[5] = Postemergence, Rate 31 g/ha, visual rating, scale 0 to 10 (0 no effect, 10 complete control)
[6] = Postemergence, Rate 250 g/ha, scale 0 to 10
[7] = Preemergence, Rate 31 g/ha, visual rating, scale 0 to 10 (0 no effect, 10 complete control)
[8] = Preemergence, Rate 62 g/ha, scale of 0 to 10 where 0 is no effect and 10 is complete control
[9] = Preemergence, Rate 125 g/ha, scale of 0 to 10 where 0 is no effect and 10 is complete control
[10] = Preemergence, Rate 250 g/ha, scale 0 to 10, 0 is no effect, 10 is complete control
[11] = Rate 62 g/ha, Postemergence, scale 0 to 10 (0 no effect, 10 complete control)
[12] = Rate 125 g/ha, Postemergence, scale 0 to 10, 0 is no effect, 10 is complete control
[13] = flood test species, Pre-emergence
[14] = Rate 250 g/ha, Pre-emergence (flood test species), scale 0 to 10, 0 is no effect, 10 is complete control
[15] = Postemergence, Rate 500 g/ha, scale of 0 to 10 where 0 is no effect and 10 is complete control
[16] = Preemergence, Rate 500 g/ha, scale 0 to 10, 0 is no effect, 10 is complete control
[17] = Rate 500 g/ha, Pre-emergence, flood test species, scale 0 to 10 (0 no effect, 10 complete control)
[18] = Postemergence, Rate 62 g/ha, scale of 0 to 10, 0 is no effect, 10 is complete control
[19] = Postemergence, Rate 125 g/ha, scale 0 to 10, 0 is no effect, 10 is complete control
[20] = Postemergence, Rate 500 g/ha, scale 0 to 10, 0 is no effect, 10 is complete control
[21] = Preemergence, Rate 125 g/ha, scale 0 to 10, 0 is no effect, 10 is complete control
[22] = Preemergence, Rate 500 g/ha, scale of 0 to 10 where 0 is no effect and 10 is complete control
[23] = Rate 250 g/ha, Postemergence, scale of 0 to 10 where 0 is no effect and 10 is complete control
[24] = Rate 500 g/ha, Pre-emergence section of Table B, 0 to 10 scale (0 no effect, 10 complete control)

SMILES: CC(C)N(C(=O)n1oc(=O)n(CC2=NOCCC2)c1=O)c1ccc(Cl)cc1 [Compound 450]
- Giant foxtail plant response rating [1, 5]: 0
- Giant foxtail plant response rating [1, 6]: 7
- Giant foxtail plant response rating [1, 7]: 0
- Plant response rating, Giant foxtail [1, 8]: 2
- Plant response rating, Giant foxtail [1, 9]: 8
- Giant foxtail plant response rating [1, 10]: 9
- Giant foxtail plant response rating [1, 11]: 2
- Giant foxtail plant response rating [1, 12]: 5
- Cocklebur plant response rating [2, 5]: 0
- Cocklebur plant response rating [2, 6]: 0
- Cocklebur plant response rating [2, 7]: 0
- Plant response rating, Cocklebur [2, 8]: 0
- Plant response rating, Cocklebur [2, 9]: 0
- Cocklebur plant response rating [2, 10]: 0
- Cocklebur plant response rating [2, 11]: 0
- Cocklebur plant response rating [2, 12]: 0
- Barnyardgrass plant response rating ([3]; Rate 31 g/ha, Pre-emergence section (flood test species), scale 0 to 10): 0
- Plant response rating, Barnyardgrass (0 to 10 scale, 0 is no effect, 10 is complete control) [3, 13]: 0
- Barnyardgrass plant response rating (0 to 10 scale, 0 is no effect, 10 is complete control) ([3]; flood test species): 0
- Barnyardgrass plant response rating [3, 14]: 0
- Morningglory plant response rating [4, 5]: 0
- Morningglory plant response rating [4, 6]: 1
- Plant response rating, Morningglory [4, 8]: 0
- Plant response rating, Morningglory [4, 9]: 0
- Morningglory plant response rating [4, 10]: 0
- Morningglory plant response rating [4, 11]: 0
- Morningglory plant response rating [4, 12]: 0

SMILES: CC(C)N(C(=O)n1oc(=O)n(CCC[Si](C)(C)C)c1=O)c1ccc(F)cc1 [Compound 461]
- Giant foxtail plant response rating [1, 6]: 0
- Giant foxtail plant response rating [1, 15]: 0
- Plant response rating, Giant foxtail [1, 8]: 0
- Plant response rating, Giant foxtail [1, 9]: 0
- Giant foxtail plant response rating [1, 10]: 0
- Giant foxtail plant response rating [1, 16]: 3
- Giant foxtail plant response rating [1, 11]: 0
- Giant foxtail plant response rating [1, 12]: 0
- Cocklebur plant response rating [2, 6]: 0
- Cocklebur plant response rating [2, 15]: 3
- Plant response rating, Cocklebur [2, 8]: 0
- Plant response rating, Cocklebur [2, 9]: 0
- Cocklebur plant response rating [2, 10]: 0
- Cocklebur plant response rating [2, 16]: 0
- Cocklebur plant response rating [2, 11]: 0
- Cocklebur plant response rating [2, 12]: 0
- Plant response rating, Barnyardgrass (0 to 10 scale, 0 is no effect, 10 is complete control) [3, 13]: 0
- Barnyardgrass plant response rating (0 to 10 scale, 0 is no effect, 10 is complete control) ([3]; flood test species): 0
- Barnyardgrass plant response rating [3, 14]: 0
- Barnyardgrass plant response rating [3, 17]: 0
- Morningglory plant response rating [4, 6]: 7
- Plant response rating, Morningglory [4, 8]: 0
- Plant response rating, Morningglory [4, 9]: 0
- Morningglory plant response rating [4, 10]: 0
- Morningglory plant response rating [4, 16]: 0
- Morningglory plant response rating [4, 11]: 3
- Morningglory plant response rating [4, 12]: 7

SMILES: CC(C)N(C(=O)n1oc(=O)n(CCCl)c1=O)c1ccc(Cl)cc1 [Compound 474]
- Giant foxtail plant response rating [1, 6]: 7
- Giant foxtail plant response rating [1, 15]: 8
- Plant response rating, Giant foxtail [1, 8]: 7
- Plant response rating, Giant foxtail [1, 9]: 10
- Giant foxtail plant response rating [1, 10]: 10
- Giant foxtail plant response rating [1, 16]: 10
- Giant foxtail plant response rating [1, 11]: 3
- Giant foxtail plant response rating [1, 12]: 6
- Cocklebur plant response rating [2, 6]: 0
- Cocklebur plant response rating [2, 15]: 4
- Plant response rating, Cocklebur [2, 8]: 0
- Plant response rating, Cocklebur [2, 9]: 0
- Cocklebur plant response rating [2, 10]: 0
- Cocklebur plant response rating [2, 16]: 0
- Cocklebur plant response rating [2, 11]: 0
- Cocklebur plant response rating [2, 12]: 0
- Plant response rating, Barnyardgrass (0 to 10 scale, 0 is no effect, 10 is complete control) [3, 13]: 0
- Barnyardgrass plant response rating (0 to 10 scale, 0 is no effect, 10 is complete control) ([3]; flood test species): 0
- Barnyardgrass plant response rating [3, 14]: 0
- Barnyardgrass plant response rating [3, 17]: 0
- Morningglory plant response rating [4, 6]: 1
- Plant response rating, Morningglory [4, 8]: 0
- Plant response rating, Morningglory [4, 9]: 0
- Morningglory plant response rating [4, 10]: 0
- Morningglory plant response rating [4, 16]: 0
- Morningglory plant response rating [4, 11]: 1
- Morningglory plant response rating [4, 12]: 1

SMILES: CC(C)N(C(=O)n1oc(=O)n(C(C)C(=O)N(C)C)c1=O)c1ccc(Cl)cc1 (stereo not shown) [Compound 480]
- Giant foxtail plant response rating [1, 6]: 8
- Giant foxtail plant response rating [1, 15]: 8
- Plant response rating, Giant foxtail [1, 8]: 10
- Plant response rating, Giant foxtail [1, 9]: 10
- Giant foxtail plant response rating [1, 10]: 10
- Giant foxtail plant response rating [1, 16]: 10
- Giant foxtail plant response rating [1, 11]: 3
- Giant foxtail plant response rating [1, 12]: 5
- Cocklebur plant response rating [2, 6]: 0
- Cocklebur plant response rating [2, 15]: 1
- Plant response rating, Cocklebur [2, 8]: 0
- Plant response rating, Cocklebur [2, 9]: 0
- Cocklebur plant response rating [2, 10]: 0
- Cocklebur plant response rating [2, 16]: 0
- Cocklebur plant response rating [2, 11]: 0
- Cocklebur plant response rating [2, 12]: 0
- Plant response rating, Barnyardgrass (0 to 10 scale, 0 is no effect, 10 is complete control) [3, 13]: 0
- Barnyardgrass plant response rating (0 to 10 scale, 0 is no effect, 10 is complete control) ([3]; flood test species): 0
- Barnyardgrass plant response rating [3, 14]: 0
- Barnyardgrass plant response rating [3, 17]: 0
- Morningglory plant response rating [4, 6]: 7
- Plant response rating, Morningglory [4, 8]: 0
- Plant response rating, Morningglory [4, 9]: 0
- Morningglory plant response rating [4, 10]: 0
- Morningglory plant response rating [4, 16]: 0
- Morningglory plant response rating [4, 11]: 2
- Morningglory plant response rating [4, 12]: 4

SMILES: CCCCCn1c(=O)on(C(=O)N(c2ccc(Cl)cc2)C(C)C)c1=O [Compound 528]
- Giant foxtail plant response rating [1, 18]: 0
- Giant foxtail plant response rating [1, 19]: 3
- Plant response rating, Giant foxtail [1, 20]: 9
- Plant response rating, Giant foxtail [1, 8]: 9
- Giant foxtail plant response rating [1, 21]: 10
- Giant foxtail plant response rating (0 to 10 scale) ([1]; Preemergence, Rate 250 g/ha): 10
- Giant foxtail plant response rating [1, 22]: 10
- Plant response rating, Giant foxtail [1, 23]: 3
- Cocklebur plant response rating [2, 18]: 0
- Cocklebur plant response rating [2, 19]: 0
- Plant response rating, Cocklebur [2, 20]: 3
- Plant response rating, Cocklebur [2, 8]: 0
- Cocklebur plant response rating [2, 21]: 0
- Cocklebur plant response rating (0 to 10 scale) ([2]; Preemergence, Rate 250 g/ha): 0
- Cocklebur plant response rating [2, 22]: 0
- Plant response rating, Cocklebur [2, 23]: 2
- Plant response rating, Barnyardgrass (0 to 10 scale, 0 is no effect, 10 is complete control) [3, 13]: 0
- Barnyardgrass plant response rating (0 to 10 scale, 0 is no effect, 10 is complete control) ([3]; flood test species): 0
- Barnyardgrass plant response rating [3, 14]: 0
- Barnyardgrass plant response rating [3, 24]: 0
- Morningglory plant response rating [4, 18]: 2
- Morningglory plant response rating [4, 19]: 3
- Plant response rating, Morningglory [4, 20]: 5
- Plant response rating, Morningglory [4, 8]: 0
- Morningglory plant response rating [4, 21]: 0
- Morningglory plant response rating (0 to 10 scale) ([4]; Preemergence, Rate 250 g/ha): 0
- Morningglory plant response rating [4, 22]: 3
- Plant response rating, Morningglory [4, 23]: 5

SMILES: CC(C)N(C(=O)n1oc(=O)n(CCC2OCCO2)c1=O)c1ccc(Cl)cc1 [Compound 531]
- Giant foxtail plant response rating [1, 18]: 0
- Giant foxtail plant response rating [1, 19]: 8
- Plant response rating, Giant foxtail [1, 20]: 9
- Plant response rating, Giant foxtail [1, 8]: 9
- Giant foxtail plant response rating [1, 21]: 10
- Giant foxtail plant response rating (0 to 10 scale) ([1]; Preemergence, Rate 250 g/ha): 10
- Giant foxtail plant response rating [1, 22]: 10
- Plant response rating, Giant foxtail [1, 23]: 9
- Cocklebur plant response rating [2, 18]: 0
- Cocklebur plant response rating [2, 19]: 0
- Plant response rating, Cocklebur [2, 20]: 5
- Plant response rating, Cocklebur [2, 8]: 0
- Cocklebur plant response rating [2, 21]: 0
- Cocklebur plant response rating (0 to 10 scale) ([2]; Preemergence, Rate 250 g/ha): 0
- Cocklebur plant response rating [2, 22]: 0
- Plant response rating, Cocklebur [2, 23]: 2
- Plant response rating, Barnyardgrass (0 to 10 scale, 0 is no effect, 10 is complete control) [3, 13]: 0
- Barnyardgrass plant response rating (0 to 10 scale, 0 is no effect, 10 is complete control) ([3]; flood test species): 0
- Barnyardgrass plant response rating [3, 14]: 0
- Barnyardgrass plant response rating [3, 24]: 0
- Morningglory plant response rating [4, 18]: 2
- Morningglory plant response rating [4, 19]: 4
- Plant response rating, Morningglory [4, 8]: 0
- Morningglory plant response rating [4, 21]: 0
- Morningglory plant response rating (0 to 10 scale) ([4]; Preemergence, Rate 250 g/ha): 0
- Morningglory plant response rating [4, 22]: 0
- Plant response rating, Morningglory [4, 23]: 4
